Results taken from patent US20060148055A1, “Oxidised fragments of apolioprotein B and their uses” (priority 1997, published 2006).
No end group written: not given here. MDA = malondialdehyde

System: U937 monocytes
Test: Inhibition of oxidised LDL uptake by peptides in monocytes in cell culture (DiI-labelled LDL fluorescence)
Format: cell-based
Details: versus oxidised LDL alone, ANOVA followed by Tukey post test
Procedure: An experiment was performed to determine in cell culture if uptake of oxidised LDL by U937 monocytes could be inhibited by the peptides according to SEQ ID NOs:1-3, both in their native state and conjugated to MDA.
LDL (1 mg/ml) was labelled with 1,1′-dioctadecyl-3,3,3′,3′,-tetramethylindocarbocyanine perchlorate (DiI) (300 μg/mg LDL) by incubation overnight at 37° C. in the dark under nitrogen. Excess DiI was removed by desalting into PBS (0.01 M phosphate buffer, 0.137 M sodium chloride, pH 7.4) through a PD-10 column.
U937 monocytes were maintained in RPMI media supplemented with heat inactivated fetal calf serum (10%) (FCS) and penicillin/streptomycin (1%). Cells were ‘starved’ of lipids by culturing in RMPI supplemented with penicillin/streptomycin (1%) in the absence of serum, and plated at 1 million cells per well in 6 well plates, 4 hours before treatment with DiI labelled LDL. […] Non-starved cells were also plated at 1 million cells per well in 6 well plates, 4 hours before treatment with DiI labelled LDL. Starved and non-starved cells were treated with DiI labelled LDL (oxidized) (50 μg) in the presence or absence of excess unlabelled peptide (native or MDA-conjugated) (500 μg) as competitor. […] Fluorescence was read at Ex 520 nm, Em 590 nm using a Molecular Devices Gemini XS microplate fluorimeter. […]

Substance: RB1: peptide SEQ ID NO: 1 (ALQYKLEGTTR) MDA-conjugated (ALQYK(MDA)LEGTTR)
- inhibition of uptake of oxidised LDL by monocytes (in words): inhibition is statistically significant
- inhibition of uptake of oxidised LDL by monocytes (in words) (listed as peptide corresponding to SEQ ID NO:1 conjugated to MDA): inhibits uptake
